Source: US7179832B2, “Glycogen synthase kinase 3β inhibitor, composition and process for the preparation thereof” (Crystalgenomics, Inc., priority 2003, dated 2007)
Where two headings read alike, the source gives them in different places.

Target: GSK-3β (Homo sapiens, UniProt P49841)
Assay: Assay for GSK-3β inhibiting activity (32P-ATP, phospho-CREB peptide substrate, filter paper, CPM)
Format: biochemical
Experimental: Assay for GSK-3β inhibiting activity
First, PCR (polymerase chain reaction) was carried out using human DNA as a template as well as primers which were designed to correspond to the 3′- and 5′ ends of the polynucleotide coding human GSK-3β gene (Genbank Accession No.: L33801). The BamH1/XhoI fragment of the amplified PCR product thus obtained was inserted into the pGex vector between the BamH1 and XhoI sites, and the vector obtained was transformed into E. coli BL21(DE3). The transformed cells thus obtained was incubated in […] (1% Bacto-trypton, 0.5% yeast extract, 1% NaCl) containing ampicillin ([…]) until the optical density at 600 nm reached about 0.5. The cultured mixture was cooled to 18° C. and isopropyl β-D-thiogalacto-pyranoside (IPTG) was added thereto to a final concentration of 0.5 mM. After 16 hours, the resultant was centrifuged at 10,000×g for 10 min, the collected cells were suspended in a buffer solution (30 mM Tris-HCl (pH 7.5), 100 mM NaCl, 5% glycerol, 2 mM DTT) and the cells were disrupted using Sonic Dismembrator (Fisher, U.S.A.) in a ice bath. The resulting solution was centrifuged at 16,000 rpm for 30 minutes. […] The purified GSK-3β protein was diluted in a buffer solution (20 mM HEPES (pH 7.5), 5% glycerol, 2 mM DTT) to a final concentration of 50 mM NaCl and the resulting solution was subjected to mono S column chromatography (eluent: linear gradient from 0M to 1M NaCl buffer) using mono S column (Pharmacia Biotech, U.S.A.) equilibrated in the same buffer solution to obtain GSK-3β protein.
The reaction was stopped by adding 5 μl of 5% phosphoric acid to 25 μl of the resulting solution. The resulting mixture was centrifuged at 15,000 rpm for 10 min, 20 μl of the supernatant was added dropwise to Whatman p81 filter paper, and then, the resulting filter paper was washed with 0.5% phosphate buffer for 10 min. The filter paper was further washed 3 times and the enzymatic activity was determined by examining the extent of phospho-CREB peptide phosphorylation which is represented by the unit of count per minute (CPM), measured with a β-counter (Packard, USA).
The GSK-3β inhibiting activity was then calculated in accordance with the following equation:
[formula] wherein the blank represents a value obtained without the use of the enzyme and the compound of the present invention, and the control, in the absence of the compound of the present invention.

[1] = GSK-3β inhibiting activity, 100 nM GSK-3β protein, 100 μM phospho-CREB peptide, 100 μM ATP, 30° C. for 1 hour, read-out: IC50

Sequence of GSK-3β (P49841 whole entry): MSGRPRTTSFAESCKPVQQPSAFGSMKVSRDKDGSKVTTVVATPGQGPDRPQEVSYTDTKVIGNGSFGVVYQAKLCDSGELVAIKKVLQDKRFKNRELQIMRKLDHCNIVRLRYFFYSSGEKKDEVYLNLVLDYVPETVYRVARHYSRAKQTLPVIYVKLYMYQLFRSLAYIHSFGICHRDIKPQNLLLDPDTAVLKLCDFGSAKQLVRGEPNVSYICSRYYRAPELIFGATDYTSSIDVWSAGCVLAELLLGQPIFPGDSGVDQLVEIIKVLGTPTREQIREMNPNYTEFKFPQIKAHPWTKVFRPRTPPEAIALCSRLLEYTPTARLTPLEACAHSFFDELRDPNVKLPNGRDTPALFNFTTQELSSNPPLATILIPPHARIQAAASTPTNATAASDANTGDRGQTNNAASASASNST

SMILES	IC50 [1]	IC50 (IC50 (μM))
NCCNC(=O)c1ccc(O)c2[nH]c(-c3ccccc3)nc12 [Compound 61]	> 1 µM	–
COc1cc(CCNC(=O)c2ccc(O)c3[nH]c(-c4ccccc4)nc23)ccc1O [Compound 62]	> 1 µM	–
COc1ccc(CCNC(=O)c2ccc(O)c3[nH]c(-c4ccccc4)nc23)cc1O [Compound 63]	0.45 µM	–
CS(=O)(=O)Nc1ccc(CCNC(=O)c2ccc(O)c3[nH]c(-c4ccccc4)nc23)cc1 [Compound 64]	0.03 µM	–
Cc1ccc(S(=O)(=O)Nc2ccc(CCNC(=O)c3ccc(O)c4[nH]c(-c5ccccc5)nc34)cc2)cc1 [Compound 65]	0.06 µM	–
O=C(NCCN1CCOCC1)c1ccc(O)c2[nH]c(-c3ccccc3)nc12 [Compound 66]	> 1 µM	–
O=C(NCCc1ccc(N2C(=O)c3ccccc3C2=O)cc1)c1ccc(O)c2[nH]c(-c3ccccc3)nc12 [Compound 67]	0.16 µM	–
O=C(NCCNc1ccc([N+](=O)[O-])cn1)c1ccc(O)c2[nH]c(-c3ccccc3)nc12 [Compound 69]	> 1 µM	–
O=C(NCCc1ccccn1)c1ccc(O)c2[nH]c(-c3ccccc3)nc12 [Compound 70]	> 1 µM	–
O=C(NCCc1ccccc1)c1ccc(O)c2[nH]c(-c3ccc(Cl)cc3)nc12 [Compound 71]	> 1 µM	–
O=C(NCCc1ccc([N+](=O)[O-])cc1)c1ccc(O)c2[nH]c(-c3ccc(Cl)cc3)nc12 [Compound 72]	0.12 µM	–
Nc1ccc(CCNC(=O)c2ccc(O)c3[nH]c(-c4ccc(Cl)cc4)nc23)cc1 [Compound 73]	> 1 µM	–
O=C(NCCc1ccc(O)cc1)c1ccc(O)c2[nH]c(-c3ccc(Cl)cc3)nc12 [Compound 74]	> 1 µM	–
CS(=O)(=O)Nc1ccc(CCNC(=O)c2ccc(O)c3nc(-c4ccc(Cl)cc4)[nH]c23)cc1 [Compound 75]	0.009 µM	–
Cc1ccc(S(=O)(=O)Nc2ccc(CCNC(=O)c3ccc(O)c4[nH]c(-c5ccc(Cl)cc5)nc34)cc2)cc1 [Compound 76]	0.05 µM	–
COc1ccc(CCNC(=O)c2ccc(O)c3[nH]c(-c4ccc(Cl)cc4)nc23)cc1O [Compound 77]	0.033 µM	–
O=C(NCCN1CCOCC1)c1ccc(O)c2[nH]c(-c3ccc(Cl)cc3)nc12 [Compound 78]	> 1 µM	–
O=C(NCCc1ccc(N2C(=O)c3ccccc3C2=O)cc1)c1ccc(O)c2[nH]c(-c3ccc(Cl)cc3)nc12 [Compound 79]	0.12 µM	–
CCS(=O)(=O)Nc1ccc(CCNC(=O)c2ccc(O)c3[nH]c(-c4ccc(Cl)cc4)nc23)cc1 [Compound 80]	0.07 µM	–
O=C(NCCNc1ccc([N+](=O)[O-])cn1)c1ccc(O)c2[nH]c(-c3ccc(Cl)cc3)nc12 [Compound 81]	> 1 µM	–
O=C(NCCc1ccccn1)c1ccc(O)c2[nH]c(-c3ccc(Cl)cc3)nc12 [Compound 82]	> 1 µM	–

SMILES	IC50 [1]	IC50 (IC50 (μM))
O=C(NCCc1c[nH]cn1)c1ccc(O)c2[nH]c(-c3ccc(Cl)cc3)nc12 [Compound 83]	> 1 µM	–
CN1CCN(CC(=O)Nc2ccc(CCNC(=O)c3ccc(O)c4[nH]c(-c5ccc(Cl)cc5)nc34)cc2)CC1 [Compound 86]	0.25 µM	–
CCN1CCN(CC(=O)Nc2ccc(CCNC(=O)c3ccc(O)c4[nH]c(-c5ccc(Cl)cc5)nc34)cc2)CC1 [Compound 87]	0.23 µM	–
CN(C)CC(=O)Nc1ccc(CCNC(=O)c2ccc(O)c3[nH]c(-c4ccc(Cl)cc4)nc23)cc1 [Compound 88]	0.22 µM	–
CCN(CC)CC(=O)Nc1ccc(CCNC(=O)c2ccc(O)c3[nH]c(-c4ccc(Cl)cc4)nc23)cc1 [Compound 89]	0.32 µM	–
Nc1ccc(CCNC(=O)c2ccc(O)c3[nH]c(-c4ccc(Cl)cc4)nc23)cc1 [Compound 90]	0.13 µM	–
O=C(CN1CCOCC1)Nc1ccc(CCNC(=O)c2ccc(O)c3[nH]c(-c4ccc(Cl)cc4)nc23)cc1 [Compound 92]	0.08 µM	–
CN(C)c1ccc(CCNC(=O)c2ccc(O)c3[nH]c(-c4ccc(Cl)cc4)nc23)cc1 [Compound 93]	> 1 µM	–
O=C(NCCc1ccc(OCCN2CCOCC2)cc1)c1ccc(O)c2[nH]c(-c3ccc(Cl)cc3)nc12 [Compound 94]	> 5 µM	–
CN1CCN(CCOc2ccc(CCNC(=O)c3ccc(O)c4[nH]c(-c5ccc(Cl)cc5)nc34)cc2)CC1 [Compound 95]	> 1 µM	–
O=C(NCCc1ccccc1O)c1ccc(O)c2[nH]c(-c3ccc(Cl)cc3)nc12 [Compound 96]	0.022 µM	–
COc1ccccc1CCNC(=O)c1ccc(O)c2[nH]c(-c3ccc(Cl)cc3)nc12 [Compound 97]	0.17 µM	–
O=C(NCCc1cccc(Br)c1)c1ccc(O)c2[nH]c(-c3ccc(Cl)cc3)nc12 [Compound 98]	> 1 µM	–
O=C(NCCc1ccc([N+](=O)[O-])cc1)c1ccc(O)c2[nH]c(-c3ccc(Cl)cc3Cl)nc12 [Compound 100]	0.2 µM	–
COc1cc(CCNC(=O)c2ccc(O)c3[nH]c(-c4ccc(Cl)cc4Cl)nc23)ccc1O [Compound 101]	> 1 µM	–
COc1ccc(CCNC(=O)c2ccc(O)c3[nH]c(-c4ccc(Cl)cc4Cl)nc23)cc1O [Compound 102]	0.23 µM	–
NCCNC(=O)c1ccc(O)c2[nH]c(-c3ccc(Cl)cc3Cl)nc12 [Compound 103]	> 5 µM	–
O=C(NCCc1ccc(O)cc1)c1ccc(O)c2[nH]c(-c3ccc(Cl)cc3Cl)nc12 [Compound 104]	> 1 µM	–
Cc1ccc(S(=O)(=O)Nc2ccc(CCNC(=O)c3ccc(O)c4[nH]c(-c5ccc(Cl)cc5Cl)nc34)cc2)cc1 [Compound 105]	0.05 µM	–
O=C(NCCc1ccc(N2C(=O)c3ccccc3C2=O)cc1)c1ccc(O)c2[nH]c(-c3ccc(Cl)cc3Cl)nc12 [Compound 107]	0.05 µM	–
O=C(NCCN1CCOCC1)c1ccc(O)c2[nH]c(-c3ccc(Cl)cc3Cl)nc12 [Compound 108]	> 1 µM	–

SMILES	IC50 [1]	IC50 (IC50 (μM))
CCS(=O)(=O)Nc1ccc(CCNC(=O)c2ccc(O)c3nc(-c4ccc(Cl)cc4Cl)[nH]c23)cc1 [Compound 109]	–	0.03 µM
O=C(NCCNc1ccc([N+](=O)[O-])cn1)c1ccc(O)c2[nH]c(-c3ccc(Cl)cc3Cl)nc12 [Compound 110]	0.28 µM	–
O=C(NCCc1ccccn1)c1ccc(O)c2[nH]c(-c3ccc(Cl)cc3Cl)nc12 [Compound 111]	> 1 µM	–
CC(=O)Nc1ccc(CCNC(=O)c2ccc(O)c3[nH]c(-c4ccc(Cl)cc4Cl)nc23)cc1 [Compound 112]	0.04 µM	–
CCCCC(=O)Nc1ccc(CCNC(=O)c2ccc(O)c3[nH]c(-c4ccc(Cl)cc4Cl)nc23)cc1 [Compound 113]	0.19 µM	–
CS(=O)(=O)Nc1ccc(CCNC(=O)c2ccc(O)c3[nH]c(-c4ccc(F)cc4)nc23)cc1 [Compound 114]	0.001 µM	–
Cc1ccc(S(=O)(=O)Nc2ccc(CCNC(=O)c3ccc(O)c4nc(-c5ccc(F)cc5)[nH]c34)cc2)cc1 [Compound 115]	0.026 µM	–
CCS(=O)(=O)Nc1ccc(CCNC(=O)c2ccc(O)c3[nH]c(-c4ccc(F)cc4)nc23)cc1 [Compound 116]	0.003 µM	–
CC(=O)Nc1ccc(CCNC(=O)c2ccc(O)c3[nH]c(-c4ccc(F)cc4)nc23)cc1 [Compound 117]	0.03 µM	–
CN1CCN(CCNC(=O)c2ccc(O)c3[nH]c(-c4ccc(F)cc4)nc23)CC1 [Compound 118]	> 5 µM	–
O=C(NCCN1CCOCC1)c1ccc(O)c2[nH]c(-c3ccc(F)cc3)nc12 [Compound 119]	> 5 µM	–
CCCCC(=O)Nc1ccc(CCNC(=O)c2ccc(O)c3[nH]c(-c4ccc(F)cc4)nc23)cc1 [Compound 120]	0.07 µM	–
O=C(NCCc1ccc(O)cc1)c1ccc(O)c2[nH]c(-c3ccc(F)cc3)nc12 [Compound 121]	0.03 µM	–
CS(=O)(=O)Nc1ccc(NCCNC(=O)c2ccc(O)c3[nH]c(-c4ccc(F)cc4)nc23)nc1 [Compound 123]	0.05 µM	–
Cc1ccc(S(=O)(=O)Nc2ccc(NCCNC(=O)c3ccc(O)c4[nH]c(-c5ccc(F)cc5)nc34)nc2)cc1 [Compound 124]	0.07 µM	–
O=C(NCCc1c[nH]cn1)c1ccc(O)c2[nH]c(-c3ccc(F)cc3)nc12 [Compound 125]	> 1 µM	–
CN1CCN(CC(=O)Nc2ccc(CCNC(=O)c3ccc(O)c4[nH]c(-c5ccc(F)cc5)nc34)cc2)CC1 [Compound 127]	0.18 µM	–
CCN1CCN(CC(=O)Nc2ccc(CCNC(=O)c3ccc(O)c4[nH]c(-c5ccc(F)cc5)nc34)cc2)CC1 [Compound 128]	0.15 µM	–
CN(C)CC(=O)Nc1ccc(CCNC(=O)c2ccc(O)c3[nH]c(-c4ccc(F)cc4)nc23)cc1 [Compound 129]	0.12 µM	–
CCN(CC)CC(=O)Nc1ccc(CCNC(=O)c2ccc(O)c3[nH]c(-c4ccc(F)cc4)nc23)cc1 [Compound 130]	0.33 µM	–
Nc1ccc(CCNC(=O)c2ccc(O)c3[nH]c(-c4ccc(F)cc4)nc23)cc1 [Compound 131]	0.17 µM	–
